From patent US9914732B2, “Diazabicyclo[4.3.1]decane derivatives for treatment of psychiatric disorders” (Max-Planck-Gesellschaft zur Forderung der Wissenschaften …, priority 2014, dated 2018)

Columns and labels:
FKBP51 = target: T1, FKBP51 (Homo sapiens, UniProt Q13451); experiment: Fluorescence polarization (FP) assay, binding to the FK506-binding domain of FKBP51; settings: FK506-binding domain of FKBP51 (FKBP51FK1), competition with fluorescent ligand 2b
T1 sequence (Q13451 42-130 limits assumed): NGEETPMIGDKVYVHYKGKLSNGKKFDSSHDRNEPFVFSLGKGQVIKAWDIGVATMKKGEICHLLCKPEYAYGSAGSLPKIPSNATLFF
Outline: (§1)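 Competitive FP with fluorescent ligand 2b at 20 nM (2× concentration) and FK1 domain at 280 nM (FKBP51) or 400 nM (FKBP52) in 20 mM HEPES pH 8, 0.01% Triton-X100. Anisotropy read after 30 min at room temperature (ex 485, em 535 nm), in duplicate; IC50 by four-parameter fit, Ki via Wang competitive equation.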

FKBP52 = target: T2, FKBP52 (Homo sapiens, UniProt Q02790); experiment: Fluorescence polarization (FP) assay, binding to the FK506-binding domain of FKBP52; settings: FK506-binding domain of FKBP52 (FKBP52FK1), competition with fluorescent ligand 2b
T2 sequence (Q02790 50-138 limits assumed): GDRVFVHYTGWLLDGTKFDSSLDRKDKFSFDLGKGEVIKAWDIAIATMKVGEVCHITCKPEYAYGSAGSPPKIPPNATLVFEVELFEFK
Outline: as §1

Compound | Ki (FKBP51) [nM] | Ki (FKBP52) [nM]
C=C[C@@H]1CN(Cc2ccccn2)C(=O)[C@@H]2CCC[C@H]1N2S(=O)(=O)c1cccc(C(=O)OC)c1 [Compound K23, methyl 3-(((1S,5R,6R)-2-oxo-3-(pyridin-2-ylmethyl)-5-vinyl-3,10-diazabicyclo[4.3.1]decan-10-yl)sulfonyl)benzoate] | 500 to 1000 | 500 to 1000
C=C[C@@H]1CN(Cc2ccccn2)C(=O)[C@@H]2CCC[C@H]1N2S(=O)(=O)c1cc(Cl)cc(C(=O)OC)c1 [Compound K25, methyl 3-chloro-5-(((1S,5R,6R)-2-oxo-3-(pyridin-2-ylmethyl)-5-vinyl-3,10-diazabicyclo[4.3.1]decan-10-yl)sulfonyl)benzoate] | ≤ 100 | ≤ 100
C=C[C@@H]1CN(Cc2ccccn2)C(=O)[C@@H]2CCC[C@H]1N2S(=O)(=O)c1ccc(-c2ccccc2)nc1 [Compound K27, (1S,5R,6R)-10-((6-phenylpyridin-3-yl)sulfonyl)-3-(pyridin-2-ylmethyl)-5-vinyl-3,10-diazabicyclo[4.3.1]decan-2-one] | 100 to 500 | 100 to 500
CN(C)C[C@H]1CN(Cc2ccccn2)C(=O)[C@@H]2CCC[C@H]1N2S(=O)(=O)c1cc(Cl)cc(Cl)c1 [Compound M2, (1S,5S,6R)-10-((3,5-dichlorophenyl)sulfonyl)-5-((dimethylamino)methyl)-3-(pyridin-2-ylmethyl)-3,10-diazabicyclo[4.3.1]decan-2-one] | ≤ 100 | ≤ 100
O=C1[C@@H]2CCC[C@H]([C@@H](C(F)F)CN1Cc1ccccn1)N2S(=O)(=O)c1cc(Cl)cc(Cl)c1 [Compound M3, (1S,5S,6R)-10-((3,5-dichlorophenyl)sulfonyl)-5-(difluoromethyl)-3-(pyridin-2-ylmethyl)-3,10-diazabicyclo[4.3.1]decan-2-one] | ≤ 100 | ≤ 100
O=C1[C@@H]2CCC[C@H]([C@@H](CF)CN1Cc1ccccn1)N2S(=O)(=O)c1cc(Cl)cc(Cl)c1 [Compound M4, (1S,5S,6R)-10-((3,5-dichlorophenyl)sulfonyl)-5-(fluoromethyl)-3-(pyridin-2-ylmethyl)-3,10-diazabicyclo[4.3.1]decan-2-one] | ≤ 100 | ≤ 100
CCOC[C@H]1CN(Cc2ccccn2)C(=O)[C@@H]2CCC[C@H]1N2S(=O)(=O)c1cc(Cl)cc(Cl)c1 [Compound M6, (1S,5S,6R)-10-((3,5-dichlorophenyl)sulfonyl)-5-(ethoxymethyl)-3-(pyridin-2-ylmethyl)-3,10-diazabicyclo[4.3.1]decan-2-one] | ≤ 100 | ≤ 100
C#CCN1C[C@H](COC)[C@H]2CCC[C@@H](C1=O)N2S(=O)(=O)c1cc(Br)cc(Br)c1 [Compound N3, (1S,5S,6R)-10-((3,5-dibromophenyl)sulfonyl)-5-(methoxymethyl)-3-(prop-2-yn-1-yl)-3,10-diazabicyclo[4.3.1]decan-2-one] | 100 to 500 | 100 to 500
C#CCN1C[C@H](COC)[C@H]2CCC[C@@H](C1=O)N2S(=O)(=O)c1cccc(C(N)=O)c1 [Compound N4, 3-(((1S,5S,6R)-5-(methoxymethyl)-2-oxo-3-(prop-2-yn-1-yl)-3,10-diazabicyclo[4.3.1]decan-10-yl)sulfonyl)benzamide] | 100 to 500 | 100 to 500
C#CCN1C[C@H](COC)[C@H]2CCC[C@@H](C1=O)N2S(=O)(=O)c1cc(Br)cc(C(N)=O)c1 [Compound N5, 3-bromo-5-(((1S,5S,6R)-5-(methoxymethyl)-2-oxo-3-(prop-2-yn-1-yl)-3,10-diazabicyclo[4.3.1]decan-10-yl)sulfonyl)benzamide] | 100 to 500 | 100 to 500
C#CCN1C[C@H](COC)[C@H]2CCC[C@@H](C1=O)N2S(=O)(=O)c1cc(Cl)cc(C(N)=O)c1 [Compound N6, 3-chloro-5-(((1S,5S,6R)-5-(methoxymethyl)-2-oxo-3-(prop-2-yn-1-yl)-3,10-diazabicyclo[4.3.1]decan-10-yl)sulfonyl)benzamide] | 100 to 500 | 100 to 500
C#CCN1C[C@H](COC)[C@H]2CCC[C@@H](C1=O)N2S(=O)(=O)c1ccc(NC(C)=O)c(Br)c1 [Compound N7, N-(2-bromo-4-(((1S,5S,6R)-5-(methoxymethyl)-2-oxo-3-(prop-2-yn-1-yl)-3,10-diazabicyclo[4.3.1]decan-10-yl)sulfonyl)phenyl)acetamide] | 100 to 500 | 100 to 500
C#CCN1C[C@H](COC)[C@H]2CCC[C@@H](C1=O)N2S(=O)(=O)c1ccc(NC(C)=O)c(Cl)c1 [Compound N8, N-(2-chloro-4-(((1S,5S,6R)-5-(methoxymethyl)-2-oxo-3-(prop-2-yn-1-yl)-3,10-diazabicyclo[4.3.1]decan-10-yl)sulfonyl)phenyl)acetamide] | 100 to 500 | 100 to 500
C#CCN1C[C@H](COC)[C@H]2CCC[C@@H](C1=O)N2S(=O)(=O)c1cc(Cl)c(NC(C)=O)c(Cl)c1 [Compound N9, N-(2,6-dichloro-4-(((1S,5S,6R)-5-(methoxymethyl)-2-oxo-3-(prop-2-yn-1-yl)-3,10-diazabicyclo[4.3.1]decan-10-yl)sulfonyl)phenyl)acetamide] | 100 to 500 | 100 to 500
C#CCN1C[C@H](COC)[C@H]2CCC[C@@H](C1=O)N2S(=O)(=O)c1cccc(C(=O)OC)c1 [Compound N10, methyl 3-(((1S,5S,6R)-5-(methoxymethyl)-2-oxo-3-(prop-2-yn-1-yl)-3,10-diazabicyclo[4.3.1]decan-10-yl)sulfonyl)benzoate] | 100 to 500 | 100 to 500
C#CCN1C[C@H](COC)[C@H]2CCC[C@@H](C1=O)N2S(=O)(=O)c1cc(Br)cc(C(=O)OC)c1 [Compound N11, methyl 3-bromo-5-(((1S,5S,6R)-5-(methoxymethyl)-2-oxo-3-(prop-2-yn-1-yl)-3,10-diazabicyclo[4.3.1]decan-10-yl)sulfonyl)benzoate] | 100 to 500 | 100 to 500
C#CCN1C[C@H](COC)[C@H]2CCC[C@@H](C1=O)N2S(=O)(=O)c1cc(Cl)cc(C(=O)OC)c1 [Compound N12, methyl 3-chloro-5-(((1S,5S,6R)-5-(methoxymethyl)-2-oxo-3-(prop-2-yn-1-yl)-3,10-diazabicyclo[4.3.1]decan-10-yl)sulfonyl)benzoate] | 100 to 500 | 100 to 500
C#CCN1C[C@H](COC)[C@H]2CCC[C@@H](C1=O)N2S(=O)(=O)c1cccnc1 [Compound N13, (1S,5S,6R)-5-(methoxymethyl)-3-(prop-2-yn-1-yl)-10-(pyridin-3-ylsulfonyl)-3, 10-diazabicyclo[4.3.1]decan-2-one] | 500 to 1000 | 500 to 1000
C#CCN1C[C@H](COC)[C@H]2CCC[C@@H](C1=O)N2S(=O)(=O)c1ccc(-c2ccccc2)nc1 [Compound N14, (1S,5S,6R)-5-(methoxymethyl)-10-((6-phenylpyridin-3-yl)sulfonyl)-3-(prop-2-yn-1-yl)-3,10-diazabicyclo[4.3.1]decan-2-one] | 100 to 500 | 100 to 500
C#CCN1C[C@H](COC)[C@H]2CCC[C@@H](C1=O)N2S(=O)(=O)c1ccc(-c2ncccn2)cc1 [Compound N15, (1S,5S,6R)-5-(methoxymethyl)-3-(prop-2-yn-1-yl)-10-((4-(pyrimidin-2-yl)phenyl)sulfonyl)-3,10-diazabicyclo[4.3.1]decan-2-one] | 100 to 500 | 100 to 500
C#CCN1C[C@H](COC)[C@H]2CCC[C@@H](C1=O)N2S(=O)(=O)c1nc2ccccc2[nH]1 [Compound N16, (1S,5S,6R)-10-((1H-benzo[d]imidazol-2-yl)sulfonyl)-5-(methoxymethyl)-3-(prop-2-yn-1-yl)-3,10-diazabicyclo[4.3.1]decan-2-one] | 100 to 500 | 100 to 500
COC[C@H]1CN(Cc2cnn[nH]2)C(=O)[C@@H]2CCC[C@H]1N2S(=O)(=O)c1cccc(F)c1 [Compound N17, (1S,5S,6R)-3-((1H-1,2,3-triazol-5-yl)methyl)-10-((3-fluorophenyl)sulfonyl)-5-(methoxymethyl)-3,10-diazabicyclo[4.3.1]decan-2-one] | ≤ 100 | ≤ 100
COC[C@H]1CN(Cc2cnn[nH]2)C(=O)[C@@H]2CCC[C@H]1N2S(=O)(=O)c1cc(Br)cc(Br)c1 [Compound N18, (1S,5S,6R)-3-((1H-1,2,3-triazol-5-yl)methyl)-10-((3,5-dibromophenyl)sulfonyl)-5-(methoxymethyl)-3,10-diazabicyclo[4.3.1]decan-2-one] | ≤ 100 | ≤ 100
COC[C@H]1CN(Cc2cnn[nH]2)C(=O)[C@@H]2CCC[C@H]1N2S(=O)(=O)c1cccc(C(N)=O)c1 [Compound N19, 3-(((1S,5S,6R)-3-((1H-1,2,3-triazol-5-yl)methyl)-5-(methoxymethyl)-2-oxo-3,10-diazabicyclo[4.3.1]decan-10-yl)sulfonyl)benzamide] | ≤ 100 | ≤ 100
COC[C@H]1CN(Cc2cnn[nH]2)C(=O)[C@@H]2CCC[C@H]1N2S(=O)(=O)c1cc(Br)cc(C(N)=O)c1 [Compound N20, 3-(((1S,5S,6R)-3-((1H-1,2,3-triazol-5-yl)methyl)-5-(methoxymethyl)-2-oxo-3,10-diazabicyclo[4.3.1]decan-10-yl)sulfonyl)-5-bromobenzamide] | ≤ 100 | ≤ 100
COC[C@H]1CN(Cc2cnn[nH]2)C(=O)[C@@H]2CCC[C@H]1N2S(=O)(=O)c1cc(Cl)cc(C(N)=O)c1 [Compound N21, 3-(((1S,5S,6R)-3-((1H-1,2,3-triazol-5-yl)methyl)-5-(methoxymethyl)-2-oxo-3,10-diazabicyclo[4.3.1]decan-10-yl)sulfonyl)-5-chlorobenzamide] | ≤ 100 | ≤ 100
